Data as given in paper PMC9031226, “Preclinical Therapeutic Assessment of a New Chemotherapeutics [Dichloro(4,4’-Bis(2,2,3,3-Tetrafluoropropoxy) Methyl)-2,2’-Bipryridine) Platinum] in an Orthotopic Patient-Derived Xenograft Model of Triple-Negative Breast Cancers” (Pharmaceutics, 2022).

Legend:
MCF-7 = test: MTT cell viability assay on MCF-7; type: cell-based, human; conditions: for reduction in cell viability (antiproliferative effect): MCF-7, 80 μM
Description: (§1) Human cancer cell lines, including MDA-MB-231, MCF-7, COLO205 and SK-OV-3, used in this study were purchased from American Type Culture Collection (ATCC, Manassas, VA, USA). All cell cultures were maintained in a 5% CO2-containing incubator at 37 °C. Triple-negative breast cancer cell line MDA-MB-231 and estrogen receptor-positive breast cancer cells MCF-7 were cultured in Dulbecco’s Modified Eagle Medium/Nutrient Mixture F-12 medium (DMEM/F12, Thermo Fisher Scientific Inc., Waltham, MA, USA) supplemented with 1% HyClone Penicillin-Streptomycin 100X solution (Cytiva, Marlborough, MA, USA) and 10% (v/v) fetal bovine serum (Thermo Fisher Scientific Inc., Waltham, MA, USA). COLO205 colon cancer cells and SK-OV-3 ovarian cancer cells were cultured in Roswell Park Memorial Institute (RPMI) 1640 medium (Thermo Fisher Scientific Inc., Waltham, MA, USA) containing the same supplements as described above.
(§2) Cell viability was evaluated using MTT assay. […] A viable cell count was determined by adding MTT reagent (3-(4,5-Dimethyl-2-thiazolyl)-2,5-diphenyl-2H-tetrazolium bromide (MTT; SERVA, Heidelberg, Germany) at a concentration of 5 mg/mL in PBS followed by measurement of the absorbance at 570 nm for each well detected by μQuant™ universal microplate spectrophotometer (BioTek, Winowski, VT, USA). The assessment procedures were followed under the manufacturer’s instructions. The final results were represented as mean values in the same experimental group detected by a microplate reader.

calf thymus DNA (ct-DNA) = test: UV-Vis spectrum of DNA-drug complex; type: binding; conditions: 25 ng/μL ct-DNA, 40-640 μM, 6 h, 37 °C
Description: The binding of the platinum-based agent with calf thymus DNA (ct-DNA) was assessed using UV-visible spectroscopy. […] Absorption between the wavelengths of 220 nm and 500 nm was detected by measuring absorbance every 2 nm via Thermo Varioskan Flash microplate reader (Thermo Fisher Scientific Inc., Waltham, MA, USA). The maximal absorbance of DNA at 260 nm was marked to highlight the spectrum in pure DNA without chemical intercalation.

COLO205 = test: MTT cell viability assay on COLO205; type: cell-based, human; conditions: for reduction (proliferative inhibition): COLO205, 20 μM; for IC50: COLO205, MTT assay, 48 h
Description: as §1, §2

MDA-MB-231 = test: MTT cell viability assay on MDA-MB-231; type: cell-based, human; conditions: for reduction in cell viability: MDA-MB-231, 20 μM; for IC50: MDA-MB-231, MTT assay, 48 h
Description: as §1, §2

MDA-MB-231 cells [1] = test: Cell cycle analysis (PI staining, flow cytometry); type: cell-based, human; conditions: 24 h; for DNA content in sub G1: without exposure 8.71%; for DNA content in S phase: without exposure 14.75%
Description: The pellet was collected and fixed in 99% ice-cold ethanol and then stored in a freezer at −20 °C for further processing of staining. To label DNA, those fixed cells were rapidly washed to remove the residual fixing agent, followed by staining with DNA intercalating agent propidium iodide solution (PI) for 30 min in the dark. The PI working solution contains 0.5% Triton X-100, 15 μg propidium iodide (PI; BioVision Inc., Milpitas, CA, USA) and 10 μg RNase A (Thermo Fisher Scientific Inc., Waltham, MA, USA) in 1 mL PBS. The measurement and acquisition of DNA content were conducted using FACSVerse^TM Flow Cytometer (BD, Franklin Lakes, NJ, USA). Cell cycle distribution in four phases (subG1, G1, S, G2/M) was gated and analyzed in Kaluza Analysis Software (Beckman Coulter Inc., Indianapolis, IN, USA).

MDA-MB-231 cells [2] = test: Cell line-derived xenograft (CDX) model, tumor growth; type: in vivo; conditions: NSG mice
Description: The procedures for the establishment of breast cancer-bearing xenograft models were modified from a previous publication and approved by the Taipei Medical University (TMU) Institutional Animal Care and Use Committee (IACUC No. LAC-2020-0175). Overall, 4- to 6-week-old NOD.Cg-PrkdcscidIl2rgtm1Wjl/SzJ (NSG) female mice purchased from National Laboratory Animal Center (Taipei, Taiwan) were housed in specific pathogen-free rooms with ad libitum feeding and 12 h light–dark cycle. After a week of acclimatization, 2 × 10^6 MDA-MB-231 cells suspended in 1:1 ratio of phosphate-buffered saline plus Matrigel® Matrix (Cat. 356237; Corning Inc., New York, NY, USA) were subcutaneously injected on the right flank of each mouse. […] To monitor tumor growth in the models, tumor diameter was measured using an electronic caliper and values were applied on the equation: width^2 × length × 0.52 to estimate their tumor volume. All mice were sacrificed on day 28 after treatment. Plasma, tumors and major organs (heart, liver, kidney, spleen and lung) were collected for toxicity assessment and metastasis evaluation.

MDA-MB-231 cells [3] = test: Apoptosis detection (annexin V/PI, flow cytometry); type: cell-based, human; conditions: MDA-MB-231, 15 h
Description: In total, 3 × 10^5 MDA-MB-231 cells were first plated and cultured in a 6-well plate for 24 h and then exposed to medium, TFBPC- or CDDP-containing medium, and incubated in the dark for another 15 h, followed by apoptotic assessment using FITC-annexin V (AV) and propidium iodide (PI) double staining cell solution (Thermo Fisher Scientific Inc., Waltham, MA, USA) for 30 min. To assess the AV-Phosphatidylserine (excitation/emission maxima of 490/525 nm) and PI-DNA (excitation/emission maxima of 535/617 nm) binding, fluorescence intensity was analyzed and recorded using flow cytometer. Scatters in a two-parameter dot plot were gated into four quadrants. Proportions in the lower right (LR) and upper right (UR) quadrants were represented as the early stage and late stage in apoptotic process.

[4] = 5 mg/kg i.p. weekly x4, day 28, PBS 1412.72 ± 120.85

Row | Compound | reduction in cell viability (antiproliferative effect) (MCF-7) [%] | IC50 (MCF-7; MCF-7, MTT assay, 48 h) [µM] | IC50 Values (MCF-7; MCF-7, MTT assay, 48 h) | change in UV-Vis absorption spectrum of ct-DNA at 260 nm (calf thymus DNA (ct-DNA)) | reduction (proliferative inhibition) (COLO205) [%] | IC50 (COLO205) [µM] | cell viability of COLO205 cells (COLO205; MTT, 20 to 80 μM, 24 or 48 h, supplementary figure) | reduction in cell viability (MDA-MB-231) [%] | IC50 (MDA-MB-231) [µM] | DNA content in sub G1 (MDA-MB-231 cells [1]; MDA-MB-231, 2.5 μM) [%] | DNA content in sub G1 (MDA-MB-231 cells [1]; MDA-MB-231, 5 μM) [%] | DNA content in sub G1 (MDA-MB-231 cells [1]; MDA-MB-231, 10 μM) [%] | tumor weight (MDA-MB-231 cells [2]; 5 mg/kg i.p. weekly x4, day 28) | average tumor volume (MDA-MB-231 cells [2]; [4]) [mm^3] | induction of apoptosis (annexin V) (MDA-MB-231 cells [3]) | DNA content in S phase (MDA-MB-231 cells [1]; MDA-MB-231, 2.5 μM) [%] | DNA content in S phase (MDA-MB-231 cells [1]; MDA-MB-231, 5 μM) [%] | DNA content in S phase (MDA-MB-231 cells [1]; MDA-MB-231, 10 μM) [%] | average tumor volume (MDA-MB-231 cells [2]; 2.11 mg/kg i.p. weekly x4, day 28, PBS 1412.72 ± 120.85)
1 | FC(F)C(F)(F)COCc1ccnc(-c2cc(COCC(F)(F)C(F)F)ccn2)c1.[Cl][Pt][Cl] [TFBPC] | 28 | > 80 | resistant | hyperchromicity profile | 72 | 11.5 | effective in inhibiting the cell viability | 88 | 3.86 | 14.8 | 23.14 | 27.15 | ~ 0.3 g | ~413.03 ± 87.50 | caused cells to undergo an apoptotic fate |  |  |  | 
2 | N.N.[Cl][Pt][Cl] [CDDP, Cis-diamineplatinum(II) dichloride] | 19 | > 80 |  | hypochromic profile | 23 | 70 |  | 10 | > 80 |  |  |  |  | ~540.23 ± 133.20 | failed to induce MDA-MB-231 cells to undergo apoptosis | 26.8 | 32.27 | 39.65 | around 821.66 ± 133.75 mm^3
